# Measured values reported in article PMC6158189, “A pharmacological probe identifies cystathionine β-synthase as a new negative regulator for ferroptosis” (Cell Death & Disease, 2018).
# Molecular target: T1, hCBS-FL (Homo sapiens, UniProt P35520)
# T1 sequence (P35520 1-551): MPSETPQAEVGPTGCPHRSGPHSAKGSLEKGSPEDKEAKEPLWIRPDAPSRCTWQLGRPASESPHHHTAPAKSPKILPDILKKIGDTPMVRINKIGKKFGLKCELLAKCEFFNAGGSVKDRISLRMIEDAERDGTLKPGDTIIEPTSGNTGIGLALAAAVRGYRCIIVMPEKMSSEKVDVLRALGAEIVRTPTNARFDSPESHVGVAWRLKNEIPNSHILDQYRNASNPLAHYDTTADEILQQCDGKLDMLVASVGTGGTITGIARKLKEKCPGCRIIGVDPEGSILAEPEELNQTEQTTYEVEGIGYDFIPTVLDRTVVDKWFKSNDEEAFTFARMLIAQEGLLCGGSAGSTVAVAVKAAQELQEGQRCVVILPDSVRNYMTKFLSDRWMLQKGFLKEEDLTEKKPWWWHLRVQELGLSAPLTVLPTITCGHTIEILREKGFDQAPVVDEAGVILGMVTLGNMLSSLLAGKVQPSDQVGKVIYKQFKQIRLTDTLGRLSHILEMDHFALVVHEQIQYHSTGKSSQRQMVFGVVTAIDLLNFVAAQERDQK
# Assay: H2S in HEK293T cells transiently expressing hCBS (AzMC probe)
# Assay type: cell-based
# Conditions: 10 μM, 8 h
# Description: HEK293T cells were transiently transfected with empty vector (EV, i and ii), hCBS-FL (iii and iv) or hCSE (v and vi) plasmids, followed by incubation with DMSO (i–iii and v) or 10 μM CH004 (iv and vi) for 8 h before staining with 50 μM AzMC, a H2S-specific probe (“Materials and Methods” section). For larger fluorescent and bright-field images, please see Supplementary Figure 4. The expression levels of hCBS or hCSE in HEK293T cells after transient transfections were determined by western blotting using an anti-CBS antibody (3E1, 1:2000; Abnova) or anti-CSE antibody (1:500, GeneTex). The densities of protein bands for hCBS or hCSE in the blots were quantified with the ImageJ software (National Institutes of Health, Bethesda, MD, USA) and expressed as ratios of respective control (EV group). […] The fluorescent images of the H2S (blue) were accordingly quantified (“Materials and Methods” section) with ImageJ. […] A representative fluorescence image from three independent experiments is shown. […]
# H2S levels in living cells were detected using a H2S-specific fluorescent probe according to a protocol described previously[31],[55]. […] After incubation with 50 μM AzMC at 37 °C for 30 min, the cells were washed 4 times with PBS, and the fluorescent images were recorded with excitation by 405 nm laser by using a A1Si (Nikon) confocal microscope. […]
structure (smiles),measurement,value
"Cn1nc(Cc2ccccc2)nc2c(=O)n(C)c(=O)nc1-2 [CH004, 3-benzyl-1,6-dimethylpyrimido[5,4-e][1,2,4]triazine-5,7(1H,6H)-dione]",decrease in H2S,~ 50%
